Values belong to the compound of their own block, whether it stands above or below them.
Tests used:
[1] = tested on: spinal fracture; conditions: post-menopausal women; cited from earlier work
[2] = tested on: bone; assay: treatment of mammals with polysulfated polysaccharides, effect on bone; format: in vivo

Compound: NCCCC(O)(P(=O)(O)O)P(=O)(O)O [Fosamax, alendronate]
- reduction of risk of spinal fracture [1]: ~50%

Compound: calcium pentosan polysulfate
- occurrence or spread of osteoporosis ([2]; low dosages producing blood levels of 0.01 to 100 micrograms per ml, low continuous or high pulsed therapy dose): reduces the occurrence or spread of osteoporosis

- effect on bone (bone fragility) ([2]; high repeated dosages, mammals): causes bone fragility
Compound: pentosan polysulfate

Reference: patent US6593310B1, “Treatment of osteoporosis” (Arthropharm Pty. Ltd., priority 2000, dated 2003)
